In assay [1] the target is T1, LXRβ (Homo sapiens, UniProt P55055).
T1 sequence (P55055 1-460): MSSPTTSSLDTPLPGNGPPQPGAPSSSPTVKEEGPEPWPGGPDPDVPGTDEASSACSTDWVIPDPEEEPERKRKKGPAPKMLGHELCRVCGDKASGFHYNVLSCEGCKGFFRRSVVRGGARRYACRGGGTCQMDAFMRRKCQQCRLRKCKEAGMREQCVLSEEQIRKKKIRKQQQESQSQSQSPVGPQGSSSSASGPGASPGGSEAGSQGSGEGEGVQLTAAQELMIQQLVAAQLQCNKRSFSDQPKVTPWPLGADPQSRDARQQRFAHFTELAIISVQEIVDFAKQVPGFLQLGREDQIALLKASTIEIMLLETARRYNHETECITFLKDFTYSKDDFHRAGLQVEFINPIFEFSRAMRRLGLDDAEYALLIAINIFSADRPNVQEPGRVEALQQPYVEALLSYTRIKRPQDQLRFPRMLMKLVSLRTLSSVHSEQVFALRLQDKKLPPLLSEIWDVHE
In words: ChIP, LXRβ binding to the LXRE in the α-synuclein promoter. It counts as cell-based. Also on record: endogenous in cells; host or cells: SH-SY5Y human neuroblastoma cells. The following applies: SH-SY5Y. The method, then:
(§1) Human neuroblastoma SH-SY5Y cells were grown in DMEM/F12 medium containing 10% fetal bovine serum (FBS) and 1% antibiotic/antimycotic mix. Cells were maintained at 37° C. in a saturated humidity atmosphere containing 95% air and 5% CO2.
ChIP analysis was performed to evaluate the extent of ERα/ERβ and LXRα/LXRβ binding to the DNA elements in the TH promoter and α-synuclein promoter regions respectively using “SimpleChIP™ Enzymatic Chromatic IP kit” from Cell Signaling (Boston, Mass.).
Briefly, cells from each treatment group (3×10^6 cells) were washed with PBS, trypsinized, centrifuged at 5000 g. The pellet containing the cells was further washed with PBS and cross-linked using 37% formaldehyde for 15 min followed by the addition of glycine solution to cease the cross-linking reaction.
The cells were washed with 4× volumes of 1×PBS and centrifuged at ˜220 g for 5 min. The pellet was resuspended and incubated for 10 min in 5 ml of tissue lysis buffer containing DTT and protease and phosphatase inhibitors. The subsequent steps to isolate the cross-linked chromatin were performed according to the manufacturer's protocol.
The cross-linked chromatin from each sample was apportioned into four equal parts. One quarter of the cross-linked chromatin was set aside as “input.” One quarter of the cross-linked chromatin from each sample was incubated with 5 μg of anti-ERα mouse antibody (Cell Signaling, Boston, Mass.) and 5 μg of anti-ERβ rabbit antibody (Upstate, Bedford, Mass.), or 5 μg of anti-LXRα rabbit antibody (Abcam, Cambridge, Mass.) and 5 μg of anti-LXRβ mouse antibody (Abcam, Cambridge, Mass.), while the remaining one quarter of the cross-linked chromatin from each sample was incubated with 5 μg of normal Rabbit IgG to serve as negative control.
The cross-linked chromatin samples were incubated overnight at 4° C. with their respective antibodies. The DNA-protein complexes were collected with Protein G agarose beads and washed to remove non-specific antibody binding. The DNA from the DNA-protein complexes from all the samples including the input and negative control was reverse cross-linked by incubation with 2 μL of Proteinase K for 2 hours at 65° C.
The crude DNA extract was eluted and then washed several times with wash buffer containing ethanol (provided with the kit) followed by purification with the use of DNA spin columns provided by the manufacturer. The pure DNA was eluted out of the DNA spin columns using 50 μL of the DNA elution buffer provided in the kit. 1 μL of the purified DNA was used for DNA concentration analysis using the “Quant-iT™ dsDNA Assay kit” from Invitrogen (Carlsbad, Calif.). The DNA fragment size was determined by electrophoresis on a 1.2% agarose FlashGel^R system (Lonza, Rockland, Me.).
The relative abundance of the ERα or ERβ antibody precipitated chromatin containing the ERE in the TH promoter region and LXRα or LXRβ antibody precipitated chromatin containing the LXRE in the α-synuclein promoter region was determined by qPCR using an iQ SYBR Green Supermix kit following the manufacturer's instructions (BioRad, Hercules, Calif.) and sequence specific primers (See Table 1 above). […] The fold enrichment of the ERE in the TH promoter region and LXRE in the α-synuclein promoter region was calculated using the ΔΔCt method (K. J. Livak et al., Methods, 25, 402 (2001)) which normalizes ChIP Ct values of each sample to the % input and background.

Assay [2] has as its target T1, LXRβ. Briefly: Western blot of LXRβ levels in the nucleus, SH-SY5Y cells. It counts as cell-based. The following applies: for LXRβ protein levels in the nucleus: 24 h, treatment alone vs control. Also on record: endogenous in cells; host or cells: SH-SY5Y human neuroblastoma cells. The method, then:
as §1
Treated SH-SY5Y cells were washed with PBS and trypsinized to collect the cells and centrifuged at 5000 g. The pellet was washed again with PBS and homogenized in NE-PER tissue protein extraction reagent (Thermo Scientific, Rockford, Ill.) supplemented with protease and phosphatase inhibitors. Protein concentrations from the cytosolic and nuclear homogenates were determined with BCA protein assay.
Proteins (10 μg) were separated on SDS-PAGE gels, transferred to a polyvinylidene difluoride membrane (BioRad, Hercules, Calif.), and incubated with the following monoclonal antibodies: anti-TH mouse antibody (1:1000; Sigma Aldrich, Saint Louis, Mo.), anti-α-synuclein mouse antibody (1:500; Chemicon, Temecula, Calif.), anti-ERα rabbit antibody (1:500; Abcam, Cambridge, Mass.), anti-ERβ rabbit antibody (1:200; Upstate, Lake Placid, N.Y.), anti-LXRα rabbit antibody (1:500; Abcam, Cambridge, Mass.), anti-LXRβ mouse antibody (1:500; Abcam, Cambridge, Mass.).
β-actin and Lamin A were used as a gel loading control for cytosolic homogenates and nuclear homogenates respectively. The blots were developed with enhanced chemiluminescence (Immmun-star HRP chemiluminescent kit, Bio-Rad, Hercules, Calif.). Bands were visualized on a polyvinylidene difluoride membrane and analyzed by LabWorks 4.5 software on a UVP Bioimaging System (Upland, Calif.). Quantification of results was performed by densitometry and the results analyzed as total integrated densitometric values (arbitrary units).

Consider `C[C@@H](CO)CCC[C@@H](C)[C@H]1CC[C@H]2[C@@H]3CC=C4C[C@@H](O)CC[C@]4(C)[C@H]3CC[C@]12C` [27-OHC, 27-hydroxycholesterol], for which the “increase of LXRβ binding to the LXRE in the α-synuclein promoter” value in assay [1] (treatment alone vs control) is listed as ~3 fold. In addition, the “LXRβ protein levels in the nucleus” value in assay [2] is given as “increases”.
For the compound `CC(C)CCC[C@@H](C)[C@H]1CC[C@H]2[C@@H]3C[C@@H]4O[C@@]45C[C@@H](OS(=O)(=O)O)CC[C@]5(C)[C@H]3CC[C@]12C` [ECHS, 5α,6α-epoxycholesterol-3-sulfate], the “27-OHC-induced increase in LXRβ binding to the LXRE” value in assay [1] (co-treatment with 27-OHC) is listed as “significantly reversed”. For the same compound, the “decrease in LXRβ binding to the LXRE on the α-synuclein promoter” value in assay [1] (treatment alone vs control) is recorded as ~2.8 fold. Also, the “LXRβ protein levels in the nucleus” value in assay [2] is recorded as “reduced”. In assay [2] (co-treatment with 10 μM 27-OHC), the “27-OHC-induced increase in LXRβ in the nucleus” value is reported as “significantly attenuated”.
Turning to `Cl.O=C(O)Cc1cccc(OCCCN(Cc2cccc(C(F)(F)F)c2Cl)CC(c2ccccc2)c2ccccc2)c1` [GW3965, 3-[3-[N-(2-Chloro-3-trifluoromethylbenzyl)-(2,2-diphenylethyl)amino]propyloxy]phenylacetic acid hydrochloride], the “increase of LXRβ binding to the LXRE on the α-synuclein promoter” value in assay [1] (in combination with 27-OHC) came out at 4 fold. Moreover, in assay [1] (treatment alone vs control), the “increase of LXRβ binding to the LXRE in the α-synuclein promoter” value worked out at 3.5 fold. Moreover, the “LXRβ protein levels in the nucleus” value in assay [2] is on record as “more pronounced increase”.
